Measurements reported in PubChem BioAssay (NCI).
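Values below derive from 48-hour exposures of cells grown in 96-well plates, with endpoints linearly interpolated between the two concentrations bracketing the appropriate inhibition level. Abbreviation: GI50, concentration required for 50% inhibition of growth. TGI: concentration producing complete growth inhibition.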

Tests used:
Experiment in all cases: growth of human tumour cells (NCI), 48 h
OVCAR-3 ovarian = system: OVCAR-3 ovarian
A498 renal = system: A498 renal
SF-268 CNS = system: SF-268 CNS
DU-145 prostate = system: DU-145 prostate
TK-10 renal = system: TK-10 renal
HCC-2998 colon = system: HCC-2998 colon
SW-620 colon = system: SW-620 colon
U251 CNS = system: U251 CNS
MALME-3M melanoma = system: MALME-3M melanoma
HCT-116 colon = system: HCT-116 colon

CC(=O)N=c1ccc2nc3c(cc(N)c4ccccc43)oc-2c1
GI50 (OVCAR-3 ovarian): 0.207 µM | TGI (OVCAR-3 ovarian): 0.684 µM | GI50 (A498 renal): 1.92 µM | TGI (A498 renal): 6.87 µM | GI50 (SF-268 CNS): 1.66 µM | TGI (SF-268 CNS): 3.43 µM | GI50 (DU-145 prostate): 1.66 µM | TGI (DU-145 prostate): 3.03 µM | GI50 (TK-10 renal): 2.64 µM | TGI (TK-10 renal): 6.34 µM | GI50 (HCC-2998 colon): 0.503 µM | TGI (HCC-2998 colon): 1.87 µM | GI50 (SW-620 colon): 0.745 µM | TGI (SW-620 colon): 2.39 µM | GI50 (U251 CNS): 1.43 µM | TGI (U251 CNS): 2.86 µM | GI50 (MALME-3M melanoma): 1.39 µM | TGI (MALME-3M melanoma): 2.84 µM | GI50 (HCT-116 colon): 0.323 µM | TGI (HCT-116 colon): 1.24 µM

CCCN(CCC)c1ccc(/C=N/NC(=O)c2cccnc2)c(Cl)c1
GI50 (OVCAR-3 ovarian): 2.93 µM | TGI (OVCAR-3 ovarian): 9.29 µM | GI50 (A498 renal): 0.161 µM | TGI (A498 renal): 0.318 µM | GI50 (SF-268 CNS): 15.5 µM | TGI (SF-268 CNS): 38.9 µM | GI50 (DU-145 prostate): 17.8 µM | TGI (DU-145 prostate): 49 µM | GI50 (TK-10 renal): 0.5 µM | TGI (TK-10 renal): 3.15 µM | GI50 (HCC-2998 colon): 7.74 µM | TGI (HCC-2998 colon): 25.7 µM | GI50 (SW-620 colon): 8.07 µM | TGI (SW-620 colon): 28.6 µM | GI50 (U251 CNS): 4.78 µM | TGI (U251 CNS): 20.6 µM | GI50 (MALME-3M melanoma): 15 µM | TGI (MALME-3M melanoma): 36.1 µM | GI50 (HCT-116 colon): 2.88 µM | TGI (HCT-116 colon): 16 µM

Cc1ccc(S(=O)(=O)N2CCc3ccc(O)c4c3C2Cc2cc(Cl)ccc2-4)cc1 (stereo unspecified)
GI50 (OVCAR-3 ovarian): 0.733 µM | TGI (OVCAR-3 ovarian): 1.63 µM | GI50 (A498 renal): 0.234 µM | TGI (A498 renal): 2.13 µM | GI50 (SF-268 CNS): 2.47 µM | TGI (SF-268 CNS): 9.72 µM | GI50 (DU-145 prostate): 0.912 µM | TGI (DU-145 prostate): 2.4 µM | GI50 (TK-10 renal): 2.18 µM | TGI (TK-10 renal): 13.1 µM | GI50 (HCC-2998 colon): 1.65 µM | TGI (HCC-2998 colon): 5.37 µM | GI50 (SW-620 colon): 1.2 µM | TGI (SW-620 colon): 9.35 µM | GI50 (U251 CNS): 0.972 µM | TGI (U251 CNS): 3.77 µM | GI50 (MALME-3M melanoma): 2.59 µM | TGI (MALME-3M melanoma): 9.62 µM | GI50 (HCT-116 colon): 1.11 µM | TGI (HCT-116 colon): 4.38 µM

COC(=O)C1=C(C(=O)OC)C23C=C(C)C1C2=C(C)C1(CC1)[C@@](C)(O)C3=O (stereo partly specified)
GI50 (OVCAR-3 ovarian): 0.336 µM | TGI (OVCAR-3 ovarian): 2.12 µM | GI50 (A498 renal): 0.188 µM | TGI (A498 renal): 0.49 µM | GI50 (SF-268 CNS): 0.273 µM | TGI (SF-268 CNS): 3.07 µM | GI50 (DU-145 prostate): 0.197 µM | TGI (DU-145 prostate): > 100 µM | GI50 (TK-10 renal): 1.35 µM | TGI (TK-10 renal): 11.3 µM | GI50 (HCC-2998 colon): 0.245 µM | TGI (HCC-2998 colon): 0.693 µM | GI50 (SW-620 colon): 9.14 µM | TGI (SW-620 colon): 30.2 µM | GI50 (U251 CNS): 0.311 µM | TGI (U251 CNS): > 42.8 µM | GI50 (MALME-3M melanoma): 0.449 µM | TGI (MALME-3M melanoma): 2.16 µM | GI50 (HCT-116 colon): 0.37 µM | TGI (HCT-116 colon): 11.5 µM

C[C@@]12CCC(=O)C=C1CC[C@H]1C2=CC[C@]2(C)C1CC[C@@]2(C)O (stereo partly specified)
TGI (OVCAR-3 ovarian): > 100 µM | TGI (A498 renal): > 100 µM | TGI (SF-268 CNS): > 100 µM | TGI (DU-145 prostate): > 100 µM | TGI (TK-10 renal): > 100 µM | TGI (HCC-2998 colon): > 100 µM | TGI (SW-620 colon): > 100 µM | TGI (U251 CNS): > 100 µM | TGI (MALME-3M melanoma): > 100 µM | TGI (HCT-116 colon): > 100 µM

CCCc1nc2c(C)cc(-c3nc4ccccc4n3C)cc2n1Cc1ccc(-c2ccccc2C(=O)O)cc1
GI50 (OVCAR-3 ovarian): 14.7 µM | TGI (OVCAR-3 ovarian): 37.3 µM | GI50 (A498 renal): 20.4 µM | TGI (A498 renal): > 100 µM | GI50 (SF-268 CNS): 44.1 µM | TGI (SF-268 CNS): > 100 µM | GI50 (DU-145 prostate): 44 µM | TGI (DU-145 prostate): > 100 µM | GI50 (TK-10 renal): 55.8 µM | TGI (TK-10 renal): > 100 µM | GI50 (HCC-2998 colon): 51.9 µM | TGI (HCC-2998 colon): > 100 µM | GI50 (SW-620 colon): 49.3 µM | TGI (SW-620 colon): > 100 µM | GI50 (U251 CNS): 20.2 µM | TGI (U251 CNS): 51.8 µM | GI50 (MALME-3M melanoma): 45.9 µM | TGI (MALME-3M melanoma): > 100 µM | GI50 (HCT-116 colon): 43.4 µM | TGI (HCT-116 colon): > 100 µM

N#Cc1ccnc(N2C(=O)CC[C@H]2C(=O)N(c2cncc(F)c2)[C@H](C(=O)NC2CC(F)(F)C2)c2ccccc2Cl)c1
GI50 (OVCAR-3 ovarian): 63.9 µM | TGI (OVCAR-3 ovarian): > 100 µM | GI50 (A498 renal): 81.7 µM | TGI (A498 renal): > 100 µM | GI50 (SF-268 CNS): 56.2 µM | TGI (SF-268 CNS): > 100 µM | GI50 (DU-145 prostate): 82.5 µM | TGI (DU-145 prostate): > 100 µM | GI50 (HCC-2998 colon): > 100 µM | TGI (HCC-2998 colon): > 100 µM | GI50 (SW-620 colon): > 100 µM | TGI (SW-620 colon): > 100 µM | GI50 (U251 CNS): > 100 µM | TGI (U251 CNS): > 100 µM | GI50 (MALME-3M melanoma): > 100 µM | TGI (MALME-3M melanoma): > 100 µM | GI50 (HCT-116 colon): 29.9 µM | TGI (HCT-116 colon): > 100 µM

CCOC(=O)c1c(C(F)(F)F)n([O-])c2ccc(OC)cc2[n+]1=O
GI50 (OVCAR-3 ovarian): 4.31 µM | TGI (OVCAR-3 ovarian): 44.8 µM | GI50 (A498 renal): 11.3 µM | TGI (A498 renal): 33.7 µM | GI50 (SF-268 CNS): 4.65 µM | TGI (SF-268 CNS): 72.5 µM | GI50 (DU-145 prostate): 5.15 µM | TGI (DU-145 prostate): > 100 µM | GI50 (TK-10 renal): 9.68 µM | TGI (TK-10 renal): > 100 µM | GI50 (HCC-2998 colon): 4.77 µM | TGI (HCC-2998 colon): 35.1 µM | GI50 (SW-620 colon): 5.79 µM | TGI (SW-620 colon): > 100 µM | GI50 (U251 CNS): 4.31 µM | TGI (U251 CNS): > 100 µM | GI50 (MALME-3M melanoma): 2.83 µM | TGI (MALME-3M melanoma): 30.9 µM | GI50 (HCT-116 colon): 4.13 µM | TGI (HCT-116 colon): 18.3 µM

COc1ccc(-c2nc(-c3nc4ccc(OC)cc4[nH]3)cc3c2[nH]c2ccccc23)cc1
GI50 (OVCAR-3 ovarian): 3.51 µM | TGI (OVCAR-3 ovarian): > 100 µM | GI50 (A498 renal): 3.34 µM | TGI (A498 renal): > 100 µM | GI50 (SF-268 CNS): 4.9 µM | TGI (SF-268 CNS): > 100 µM | GI50 (DU-145 prostate): 2.06 µM | TGI (DU-145 prostate): > 100 µM | GI50 (TK-10 renal): 3.14 µM | TGI (TK-10 renal): > 100 µM | GI50 (HCC-2998 colon): 6.57 µM | TGI (HCC-2998 colon): > 100 µM | GI50 (SW-620 colon): 4.83 µM | TGI (SW-620 colon): > 100 µM | GI50 (U251 CNS): 2.89 µM | TGI (U251 CNS): > 100 µM | GI50 (MALME-3M melanoma): 27.5 µM | TGI (MALME-3M melanoma): > 100 µM | GI50 (HCT-116 colon): 2.48 µM | TGI (HCT-116 colon): > 100 µM

C=C(C)[C@@H]1CC[C@]2(C)[C@H](CC[C@@H]3[C@H]4[C@H]5OC[C@@]4(CCC5(C)C)CC[C@]32C)[C@@]1(C)CCCN
GI50 (OVCAR-3 ovarian): 1.68 µM | TGI (OVCAR-3 ovarian): 3.07 µM | GI50 (A498 renal): 1.72 µM | TGI (A498 renal): 3.12 µM | GI50 (SF-268 CNS): 1.81 µM | TGI (SF-268 CNS): 3.8 µM | GI50 (DU-145 prostate): 1.86 µM | TGI (DU-145 prostate): 3.36 µM | GI50 (TK-10 renal): 1.55 µM | TGI (TK-10 renal): 3.2 µM | GI50 (HCC-2998 colon): 1.49 µM | TGI (HCC-2998 colon): 2.91 µM | GI50 (SW-620 colon): 1.77 µM | TGI (SW-620 colon): 3.48 µM | GI50 (U251 CNS): 1.67 µM | TGI (U251 CNS): 3.15 µM | GI50 (MALME-3M melanoma): 1.77 µM | TGI (MALME-3M melanoma): 3.45 µM
